These results are taken from patent publication US11246929B2, “Combination of a protein kinase inhibitor and an additional chemotherapeutic agent” (Merck Patent GmbH, priority 2016, dated 2022).

The test system of data set [1] is human NCI-H526 SCLC xenograft. The data set can be described thus: NCI-H526 SCLC xenograft, combination with etoposide/cisplatin. The format is in vivo. As for the experimental part:
The mice were acclimatized to the housing conditions for 1 week. […] Bedding consisted of aspen chips (E. Becker, Castrop-Rauxel). Room temperature was 24+/−2° C. and relative humidity was 50+/−10% at 15 air changes per hour. Drinking water (provided ad libitum) was supplemented with 1 mg/mL Chlorine and was adjusted to a pH of 6.5 with HCl. Sterile high protein maintenance diet for immunodeficient mice (Ssniff, Soest, product No V1244-72, γ-sterilized) was also provided ad libitum. The light cycle was set at 12 hrs light and 12 hrs darkness. Details of the study protocol are as follows:
Then the cell suspension (100 μL/animal) was subcutaneously inoculated in the right flank of immunodeficient CD1 mice.
Tumor measurements and calculations: When the tumors reached a volume of 96-214 mm^3 the animals were randomized into 7 treatment groups with 10 animals each. Tumor length (L) and width (W) were measured twice weekly by calipers. The tumor volume was calculated using the formula L×W2/2. Data were collected in Study Advantage™ (data collection system).
Treatment: dosing and scheduling per above.
T/C-value: The ability of a treatment to inhibit tumor growth was assessed at the end of each study by calculating the % T/C value according to following formulas: % T/C delta>0 calculation (mean): [(end tumor volume treatment−start tumor volume treatment)/(end tumor volume control−start tumor volume control)]×100] % T/C delta≤0 (regression) calculation (mean): [(end tumor volume treatment−start tumor volume treatment)/start tumor volume treatment]×100
Toxicity: The bodyweight change in % denotes the difference between the weight at start of treatment and the end of treatment. Changes of bodyweight during the treatment course are particularly important as it is considered a measure for presence or absence of treatment-related toxicity. A dosage producing a 20% body weight change (mean of group) or ≥10% drug deaths was considered an excessively toxic dosage. Animal body weights included the tumor weights.
Animals were treated with three 1-week cycles of chemotherapy consisting of Cisplatin (3 mg/kg once weekly) and Etoposide (4 mg/kg for three consecutive days per week).

In data set [2] the target is T1, DNA-PK (p-Ser2056) (Homo sapiens, UniProt P78527).
T1 construct: from tissue; host or cells: human tumor xenografts (FaDu, HCT116, WM164) grown in mice
The data set can be described thus: IR-induced DNA-PK phosphorylation in tumor tissue, ELISA, HCT116 xenograft. As to conditions: IR 50 Gy. In kind it is in vivo. From the text: (§1) Following the induction of DSB by radiation therapy or other DNA damaging agents, the catalytic subunit of DNA-PK (DNA-PKc) is autophosphorylated at several serine and threonine residues. Ser2056 is one of the most prominent and best studied autophosphorylation sites. Because Ser2056 phosphorylation (p-Ser2056) correlated well with DNA-PK activation state it was chosen as the pharmacodynamics (PD) biomarker. Two different assay formats were established to measure p-Ser2056 in tumor tissue: ELISA and MSD format. In order to detect sequence reliable signal, IR was used at 50 Gy for the ELISA assay and 10 Gy for the more sensitive MSD assay.

In data set [3] the target is T1, DNA-PK (p-Ser2056). The experiment in a line: IR-induced DNA-PK phosphorylation in tumor tissue, MSD assay, WM164 xenograft. The format is in vivo.
Source text: as §1

Another data set deals with MO59K (DNA-PK wild type). The data set can be described thus: AlamarBlue viability assay. The format is cell-based, human. (Resazurin is reduced to fluorescent resorufin, in cell work by metabolically active cells.)
A further data set deals with A549. The experiment in a line: SRB growth inhibition, 93 cell lines panel. The settings on record: Homo sapiens; A549, lung; read-out: GI50 of etoposide (±Compound 1). In kind it is cell-based. As for the experimental part: (§2) 90 μl of cells, after a 48-hour pre-growth period, were treated by mixing with 10 μl of the compound-containing media (resulting in a final DMSO concentration of 0.1%).
(§3) This is the drug concentration causing a 50% reduction compared to the net protein increase in control cells during the drug incubation period. In other words, G150 is IC50 corrected for time zero. […] TGI was calculated from Ti=Tz. […] It was calculated as 100×[(Ti−Tz)/Tz]=−50.

The test system of a further data set is CASKI. The experiment in a line: SRB growth inhibition, 93 cell lines panel. The format is cell-based. As to conditions: Homo sapiens, Ca-Ski, cervix, read-out: GI50 of etoposide (±Compound 1). As for the experimental part:
as §2, §3

For a further data set, the system named is HT1080. The data set can be described thus: SRB growth inhibition, 93 cell lines panel. In kind it is cell-based. As to conditions: Homo sapiens, HT-1080; HT1080, connective tissue; read-out: GI50 of etoposide (±Compound 1). As for the experimental part: as §2, §3
Another data set relates to JIMT1. The data set can be described thus: SRB growth inhibition, 93 cell lines panel. The format is cell-based. As to conditions: Homo sapiens, JIMT-1; JIMT1, breast; read-out: GI50 of etoposide (±Compound 1). As to the method:
as §2, §3

Another data set deals with MDAMB435. The experiment in a line: SRB growth inhibition, 93 cell lines panel. In kind it is cell-based. The settings on record: Homo sapiens, MDA-MB-435; MDAMB435, skin; read-out: GI50 of etoposide (±Compound 1). As to the method: as §2, §3
For the next data set, the system named is MG63. The data set can be described thus: SRB growth inhibition, 93 cell lines panel. In kind it is cell-based. The settings on record: Homo sapiens, MG-63; MG63, bone; read-out: GI50 of etoposide (±Compound 1). As to the method:
as §2, §3

In another data set the test system is MINO. The data set can be described thus: SRB growth inhibition, 93 cell lines panel. In kind it is cell-based. As to conditions: Homo sapiens, hematological, read-out: GI50 of etoposide (±Compound 1). As for the experimental part: as §2, §3
A further data set has as its system OVCAR4. The experiment in a line: SRB growth inhibition, 93 cell lines panel. The format is cell-based. The settings on record: Homo sapiens, OVCAR-4; OVCAR4, ovary; read-out: GI50 of etoposide (±Compound 1). As to the method:
as §2, §3

The subject of a further data set is PANC1. The data set can be described thus: SRB growth inhibition, 93 cell lines panel. As to conditions: Homo sapiens, PANC-1; PANC1, pancreas; read-out: GI50 of etoposide (±Compound 1). The format is cell-based. As for the experimental part:
as §2, §3

The subject of another data set is RD. The data set can be described thus: SRB growth inhibition, 93 cell lines panel. As to conditions: Homo sapiens, muscle, read-out: GI50 of etoposide (±Compound 1). In kind it is cell-based. As to the method: as §2, §3
The next data set relates to WS15-NHL. The data set can be described thus: SRB growth inhibition, 93 cell lines panel. In kind it is cell-based. As to conditions: hematological, read-out: GI50 of etoposide (±Compound 1). As for the experimental part:
as §2, §3

The test system of data set [4] is mesothelioma (pleura) cell lines. The experiment in a line: cells. The settings on record: read-out: Median etoposide concentration needed to reach GI50.
Experimental: Single agent as well as combination treatment growth inhibition effects were measured by ONCOLEAD.
Relative area above the dose-response curve (relAOC or AOC) were obtained as the area above the dose-response curve in the dose range between 1E-3M and 1E-10M.
The subject of another data set is CACO2. The experiment in a line: cells. As to conditions: Homo sapiens, Caco-2, read-out: GI50 of etoposide (±Compound 1).
The subject of the next data set is SKNSH. The experiment in a line: SRB growth inhibition, 93 cell lines panel. As to conditions: Homo sapiens, SK-N-SH, read-out: GI50 of etoposide (±Compound 1).

Experimental for CACO2: Cell growth and treatment were performed in 96-well microtitre plates CELLSTAR® (Greiner Bio-One, Germany). Cells harvested from exponential phase cultures by trypsinization or by splitting (in the case of cells growing in suspension) were plated in 90 μl of media at optimal seeding densities. The optimal seeding density for each cell line was determined to ensure exponential growth for the duration of the experiment. All cells growing without anticancer agents were sub-confluent by the end of the treatment, as determined by visual inspection.
90 μl of cells, after a 48-hour pre-growth period, were treated by mixing with 10 μl of the compound-containing media (resulting in a final DMSO concentration of 0.1%). The cells were allowed to grow at 37° C. for 72 (or 120) hours.
Cells were fixed to the surface by addition of 10% TCA (for adherent growing cells) or 50% TCA (for semi-adherent growing cell or cells growing in suspension). After an hour of incubation at 4° C. plates were washed twice with 200 μl of deionized water and dried. Cells were then stained with 100 μl of 0.04% w/v SRB. […]
Using these measurements, cellular responses can be calculated for incomplete inhibition of cell growth (GI), complete inhibition of cell growth (TGI) and net loss of cells (LC) due to compound activity. […] TGI was calculated from Ti=Tz. […] It was calculated as 100×[(Ti−Tz)/Tz]=−50.
Experimental for MO59K (DNA-PK wild type): Details of the assay protocol and material utilized are set forth below.
After 24 h incubation at 37° C.
At the end of the compound incubation period 20 μl AlamarBlue reagent was added per well and the 96-well plates were incubated further up to seven hours. Absorption was determined at 540 nm by using Tecan Reader Connect and Magelan 7.
0% effect=cells treated with DMSO; −100% effect=no cells
Experimental for SKNSH: Cell growth and treatment were performed in 96-well microtitre plates CELLSTAR® (Greiner Bio-One, Germany). Cells harvested from exponential phase cultures by trypsinization or by splitting (in the case of cells growing in suspension) were plated in 90 μl of media at optimal seeding densities. The optimal seeding density for each cell line was determined to ensure exponential growth for the duration of the experiment. All cells growing without anticancer agents were sub-confluent by the end of the treatment, as determined by visual inspection. […] The cells were allowed to grow at 37° C. for 72 (or 120) hours. […] Cells were fixed to the surface by addition of 10% TCA (for adherent growing cells) or 50% TCA (for semi-adherent growing cell or cells growing in suspension). After an hour of incubation at 4° C. plates were washed twice with 200 μl of deionized water and dried. Cells were then stained with 100 μl of 0.04% w/v SRB. The plates were incubated at room temperature for at least 30 min and washed six times with 1% acetic acid to remove unbound stain. […] Using these measurements, cellular responses can be calculated for incomplete inhibition of cell growth (GI), complete inhibition of cell growth (TGI) and net loss of cells (LC) due to compound activity. […] TGI was calculated from Ti=Tz.

For the compound `COc1ccc([C@@H](O)c2cc(-c3ncnc4cc(N5CCOCC5)ccc34)c(F)cc2Cl)nn1` [Compound 1, (S)-[2-chloro-4-fluoro-5-(7-morpholin-4-yl-quinazolin-4-yl)-phenyl]-(6-methoxy-pyridazin-3-yl)-methanol], the efficacy by schedule result in data set [1] (Compound 1 daily throughout the study vs separated from SoC by 7 h or days) is on record as “better efficacy”. Also, in data set [1] (SoC combined with Compound 1), the body weight change entry is listed as “additional body weight loss”. The mean tumor volume in [1] (day 21, Compound 1 50 mg/kg daily + etoposide 4 mg/kg + cisplatin 3 mg/kg, n=10) worked out at 50 mm^3. Also, the “decrease of mean tumor volume compared to starting volume” value in data set [1] (day 21, Compound 1 50 mg/kg daily + etoposide + cisplatin) is recorded as “about 67%”. In [1] (day 28, combination arm), the “animals showing complete response” value was 4/10, the animals with regression was 1/10 and the “animals with stable disease” value is given as 3/10. In addition, the animals progression free in data set [1] (day 28, combination arm (Compound 1 + SoC)) is recorded as 9/10. Moreover, the antitumor activity result in [1] (in combination with Etoposide and Cisplatin) is recorded as “significantly enhanced antitumor activity”. Also, the “inhibition of IR-induced DNA-PK phosphorylation (Ser2056)” value at DNA-PK (p-Ser2056) [2] is reported as “Dose-dependent inhibition”. Besides, the “inhibition of IR-induced DNA-PK phosphorylation (Ser2056)” value on DNA-PK (p-Ser2056) [3] (WM164, MSD assay, IR 10 Gy) is “Dose-dependent inhibition”. For the same compound, at DNA-PK (p-Ser2056) [3] (WM164, 25 mg/kg 10 minutes prior to 10 Gy IR), the “DNA-PK autophosphorylation in tumor tissue” value is recorded as “inhibition of DNA-PK autophosphorylation”. For the same compound, in the data set on MO59K (DNA-PK wild type), the “inhibition of viability, combination with etoposide” value was “enhanced inhibition of viability”. Moreover, in the data set with MO59K (DNA-PK wild type) (compound incubation for 72 h), the “potentiation of etoposide, Compound 1 in comparison to VX-984” value was “compares favorably”.
On to `COc1cc([C@@H]2c3cc4c(cc3[C@@H](O[C@@H]3O[C@@H]5CO[C@@H](C)O[C@H]5[C@H](O)[C@H]3O)[C@H]3COC(=O)[C@H]23)OCO4)cc(OC)c1O` [Etoposide], for which the GI50 worked out at 390 nM in the data set on A549; 1450 nM in the data set on CASKI; 96 nM in the data set on HT1080; 17700 nM with JIMT1; 1140 nM in the data set on MDAMB435; 1020 nM with MG63. Also, the GI50 in the data set on MINO is 236 nM; with OVCAR4, greater than 10000 nM; with PANC1, 1920 nM; with RD, greater than 10000 nM; in the data set with WS15-NHL, 149 nM; in data set [4], 1000 nM. The GI50 was 3650 nM with CACO2 and 265 nM in the data set with SKNSH.
